Measured values published in ChEMBL document CHEMBL1795286, “A concise synthesis and antimicrobial activities of 3-polyamino-23,24-bisnorcholanes as steroid-polyamine conjugates” (2011).

Legend:
[1] = system: Enterococcus faecalis; test: Antimicrobial activity against Enterococcus faecalis ATCC 29212 after 18 hrs by twofold agar dilution method; type: functional; conditions: ATCC 29212, 18 h
[2] = system: Citrobacter koseri; test: Antimicrobial activity against Citrobacter diversus 2046 after 18 hrs by twofold agar dilution method; type: functional; conditions: Citrobacter koseri, 2046, 18 h
[3] = system: Staphylococcus aureus; test: Antimicrobial activity against Staphylococcus aureus 77 after 18 hrs by twofold agar dilution method; type: functional; conditions: Staphylococcus aureus, 77, 18 h
[4] = system: Proteus vulgaris; test: Antimicrobial activity against Proteus vulgaris 6059 after 18 hrs by twofold agar dilution method; type: functional; conditions: Proteus vulgaris, 6059, 18 h
[5] = system: Bacillus cereus; test: Antimicrobial activity against Bacillus cereus ATCC 27348 after 18 hrs by twofold agar dilution method; type: functional; conditions: ATCC 27348, 18 h
[6] = system: Morganella morganii; test: Antimicrobial activity against Morganella morganii 1375E after 18 hrs by twofold agar dilution method; type: functional
[7] = system: Enterobacter cloacae; test: Antimicrobial activity against Enterobacter cloacae ATCC 27508 after 18 hrs by twofold agar dilution method; type: functional; conditions: ATCC 27508, 18 h
[8] = system: Escherichia coli; test: Antimicrobial activity against Escherichia coli 3190Y after 18 hrs by twofold agar dilution method; type: functional
[9] = system: Escherichia coli; test: Antimicrobial activity against Escherichia coli ATCC 25922 after 18 hrs by twofold agar dilution method; type: functional; conditions: ATCC 25922, 18 h
[10] = system: Klebsiella aerogenes; test: Antimicrobial activity against Klebsiella aerogenes harboring beta-lactamase SHV-1 1976E mutant after 18 hrs by twofold agar dilution method; type: functional
[11] = system: Serratia marcescens; test: Antimicrobial activity against Serratia marcescens ATCC 27117 after 18 hrs by twofold agar dilution method; type: functional; conditions: ATCC 27117, 18 h
[12] = system: Staphylococcus epidermidis; test: Antimicrobial activity against Staphylococcus epidermidis 887E after 18 hrs by twofold agar dilution method; type: functional; conditions: read-out: MIC
[13] = system: Bacillus licheniformis; test: Antimicrobial activity against Bacillus licheniformis EMR after 18 hrs by twofold agar dilution method; type: functional; conditions: read-out: MIC
[14] = system: Salmonella typhimurium; test: Antimicrobial activity against Salmonella typhimurium ATCC 13311 after 18 hrs by twofold agar dilution method; type: functional, Salmonella enterica subsp. enterica serovar Typhimurium; conditions: Salmonella enterica, ATCC 13311, 18 h
[15] = system: Escherichia coli; test: Antimicrobial activity against Escherichia coli ATCC 10536 after 18 hrs by twofold agar dilution method; type: functional; conditions: ATCC 10536, 18 h
[16] = system: Enterobacter cloacae; test: Antimicrobial activity against Enterobacter cloacae P99 after 18 hrs by twofold agar dilution method; type: functional; conditions: P99, 18 h
[17] = system: Staphylococcus aureus; test: Antimicrobial activity against Staphylococcus aureus 241 after 18 hrs by twofold agar dilution method; type: functional; conditions: Staphylococcus aureus, 241, 18 h; read-out: MIC
[18] = system: Escherichia coli; test: Antimicrobial activity against Escherichia coli 851E after 18 hrs by twofold agar dilution method; type: functional
[19] = system: Moraxella catarrhalis; test: Antimicrobial activity against Moraxella catarrhalis 25240 after 18 hrs by twofold agar dilution method; type: functional; conditions: Moraxella catarrhalis, 25240, 18 h
[20] = system: Micrococcus luteus; test: Antimicrobial activity against Micrococcus luteus ATCC 9341 after 18 hrs by twofold agar dilution method; type: functional; conditions: ATCC 9341, 18 h, read-out: MIC
[21] = system: Klebsiella pneumoniae; test: Antimicrobial activity against Klebsiella pneumoniae 2011E after 18 hrs by twofold agar dilution method; type: functional
[22] = system: Staphylococcus aureus; test: Antimicrobial activity against Staphylococcus aureus ATCC 25923 after 18 hrs by twofold agar dilution method; type: functional; conditions: ATCC 25923, 18 h, read-out: MIC
[23] = system: Staphylococcus aureus; test: Antimicrobial activity against Staphylococcus aureus ATCC 6538P after 18 hrs by twofold agar dilution method; type: functional
[24] = system: Bacillus subtilis; test: Antimicrobial activity against Bacillus subtilis ATCC 6633 after 18 hrs by twofold agar dilution method; type: functional; conditions: ATCC 6633, 18 h
[25] = system: Acinetobacter calcoaceticus; test: Antimicrobial activity against Acinetobacter calcoaceticus ATCC 15473 after 18 hrs by twofold agar dilution method; type: functional; conditions: ATCC 15473, 18 h
[26] = system: Moraxella catarrhalis; test: Antimicrobial activity against Moraxella catarrhalis C2431 after 18 hrs by twofold agar dilution method; type: functional; conditions: C2431, 18 h, read-out: MIC
[27] = system: Serratia marcescens; test: Antimicrobial activity against Serratia marcescens 1826E after 18 hrs by twofold agar dilution method; type: functional
[28] = system: Citrobacter freundii; test: Antimicrobial activity against Citrobacter freundii 8090 after 18 hrs by twofold agar dilution method; type: functional; conditions: Citrobacter freundii, 8090, 18 h
[29] = system: Salmonella typhimurium; test: Antimicrobial activity against Salmonella Typhimurium ATCC 14028 after 18 hrs by two-fold agar dilution method; type: functional, Salmonella enterica subsp. enterica serovar Typhimurium; conditions: Salmonella enterica, ATCC 14028, 18 h
[30] = system: Staphylococcus aureus; test: Antimicrobial activity against Staphylococcus aureus giorgio after 18 hrs by twofold agar dilution method; type: functional
[31] = system: Pseudomonas aeruginosa; test: Antimicrobial activity against Pseudomonas aeruginosa 6065Y after 18 hrs by twofold agar dilution method; type: functional

Structure (SMILES) | MIC [2] [µg/mL] | MIC [4] [µg/mL] | MIC [6] [µg/mL] | MIC [7] [µg/mL] | MIC [8] [µg/mL] | MIC [10] [µg/mL] | MIC [11] [µg/mL] | MIC [12] [µg/mL] | MIC [13] [µg/mL] | MIC [14] [µg/mL] | MIC [16] [µg/mL] | MIC [17] [µg/mL] | MIC [18] [µg/mL] | MIC [20] [µg/mL] | MIC [21] [µg/mL] | MIC [22] [µg/mL] | MIC [23] [µg/mL] | MIC [24] [µg/mL] | MIC [25] [µg/mL] | MIC [26] [µg/mL] | further results
C[C@H](CO)[C@H]1CC[C@H]2[C@@H]3[C@H](N)C[C@H]4C[C@@H](NCCCNCCCCN)CC[C@]4(C)[C@H]3CC[C@]12C.Cl.Cl.Cl | > 32 | > 32 | > 32 | > 32 | > 32 | > 32 | > 32 | 32 | < 32 | > 32 | > 32 | 16 | > 32 | 16 | > 32 | 32 | 16 | 16 | > 32 | < 32 | MIC ([1]; read-out: MIC): < 32 µg/mL; MIC ([3]; read-out: MIC): 8 µg/mL; MIC ([5]; read-out: MIC): < 32 µg/mL; MIC ([9]; read-out: MIC): < 32 µg/mL; MIC [15]: > 32 µg/mL; MIC [19]: > 32 µg/mL; MIC [27]: > 32 µg/mL; MIC [28]: > 32 µg/mL; MIC [29]: > 32 µg/mL; MIC [30]: 32 µg/mL; MIC [31]: > 32 µg/mL
C[C@H](CO)[C@H]1CC[C@H]2[C@@H]3CC[C@H]4C[C@@H](NCCCNCCCCNCCCN)CC[C@]4(C)[C@H]3CC[C@]12C.Cl.Cl.Cl.Cl | > 32 | > 32 | > 32 | > 32 | > 32 | > 32 | > 32 | 32 | 32 | > 32 | > 32 | 8 | > 32 | 32 | > 32 | 32 | 8 | 8 | > 32 | < 32 | MIC ([1]; read-out: MIC): < 32 µg/mL; MIC [3]: > 32 µg/mL; MIC ([5]; read-out: MIC): < 32 µg/mL; MIC [9]: > 32 µg/mL; MIC ([15]; read-out: MIC): < 32 µg/mL; MIC ([19]; read-out: MIC): < 32 µg/mL; MIC [27]: > 32 µg/mL; MIC [28]: > 32 µg/mL; MIC [29]: > 32 µg/mL; MIC [30]: 32 µg/mL; MIC [31]: > 32 µg/mL
C[C@H](CO)[C@H]1CC[C@H]2[C@@H]3CC[C@@H]4C[C@H](NCCCNCCCCNCCCN)CC[C@]4(C)[C@H]3CC[C@]12C.Cl.Cl.Cl.Cl | > 32 | > 32 | > 32 | > 32 | > 32 | > 32 | > 32 | 16 | < 32 | > 32 | > 32 | 8 | > 32 | 8 | > 32 | 32 | 8 | 8 | > 32 | < 32 | MIC [1]: > 32 µg/mL; MIC ([3]; read-out: MIC): 8 µg/mL; MIC [5]: > 32 µg/mL; MIC [9]: > 32 µg/mL; MIC [15]: > 32 µg/mL; MIC ([19]; read-out: MIC): < 32 µg/mL; MIC [27]: > 32 µg/mL; MIC [28]: > 32 µg/mL; MIC [29]: > 32 µg/mL; MIC [30]: 32 µg/mL; MIC [31]: > 32 µg/mL
